From patent US20230303540A1 (Merck Sharp & Dohme LLC, priority 2020, published 2023)

Molecular target: GST-tagged truncated human mutant G2019S LRRK2 (Homo sapiens, UniProt Q5S007, G2019S)
Assay: LRRK2 G2019S Km ATP LanthaScreen assay
Format: biochemical
Settings: 134 μM ATP (Km ATP), LRRKtide substrate, mean IC50 values; read-out: LRRK2 pIC50 (converted)
In short: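 LanthaScreen TR-FRET read with fluorescein-LRRKtide and 134 μM ATP (Km) in Tris pH 8.5/10 mM MgCl2 buffer. The enzyme was preincubated 15 min with compound at room temperature, and the reaction ran 90 min at ambient temperature. Stopped with EDTA plus Tb anti-phospho-LRRKtide antibody; the 520/495 nm ratio gave a 4-parameter logistic IC50, mean of several runs.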

SMILES | IC50 [nM]
CC(=O)N1CCN(c2cc3nc(Nc4cnn(C5CC5)c4Cl)ncc3cc2Cl)CC1 [Ex-1.30, 1-(4-{6-chloro-2-[(5-chloro-1-cyclopropyl-1H-pyrazol-4-yl)amino]quinazolin-7-yl}piperazin-1-yl)ethan-1-one] | 7.16
Cc1nsc(Nc2ncc3ccc(N4C(=O)C5CCC4C5)cc3n2)c1C (stereo not drawn) [Ex-8.14, 2-{2-[(3,4-dimethyl-1,2-thiazol-5-yl)amino]quinazolin-7-yl}-2-azabicyclo[2.2.1]heptan-3-one] | 7.79
CC(C)(O)Cn1cc(Nc2ncc3cc(Cl)c(N4CCN(C5(C)COC5)CC4)cc3n2)cn1 [Ex-4.59, 1-[4-({6-chloro-7-[4-(3-methyloxetan-3-yl)piperazin-1-yl]quinazolin-2-yl}amino)-1H-pyrazol-1-yl]-2-methylpropan-2-ol] | 5.26
OC1CCN(c2cc3nc(Nc4cnn(CC(F)F)c4Cl)ncc3cc2Cl)CC1 [Ex-1.21, 1-(6-chloro-2-{[5-chloro-1-(2,2-difluoroethyl)-1H-pyrazol-4-yl]amino}quinazolin-7-yl)piperidin-4-ol] | 6.09
CCn1ncc(Nc2ncc3ccc(N4CCCC4C)cc3n2)c1C (single isomer, unassigned) [Ex-1.8, (S) or (R) N-(1-ethyl-5-methyl-1H-pyrazol-4-yl)-7-(2-methylpyrrolidin-1-yl)quinazolin-2-amine] | 16
CC1(n2ncc(Nc3ncc4cc(Cl)c(N5CCn6cnnc6C5)cc4n3)c2Cl)CC1 [Ex-4.45, 6-chloro-N-[5-chloro-1-(1-methylcyclopropyl)-1H-pyrazol-4-yl]-7-(5,6-dihydro[1,2,4]triazolo[4,3-a]pyrazin-7(8H)-yl)quinazolin-2-amine] | 1.27
Cc1c(Nc2ncc3cc(Cl)c(N4CCN(C)C(C)(C)C4)cc3n2)cnn1CC(F)F [Ex-1.3] | 180
Cc1c(Nc2ncc3ccc(N4C(=O)OC[C@@H]4C)cc3n2)cnn1C1C[C@@H](C)O[C@@H](C)C1 (single isomer, unassigned) [Ex-7.6] | 1.57
Cc1cc(Nc2ncc3cc(Cl)c(N4CCN(C5(C)COC5)CC4)cc3n2)sn1 [Ex-4.62, 6-chloro-7-[4-(3-methyloxetan-3-yl)piperazin-1-yl]-N-(3-methyl-1,2-thiazol-5-yl)quinazolin-2-amine] | 0.793
CC1(N2CCN(c3cc4nc(Nc5cnn(CC(F)F)c5)ncc4cc3Cl)CC2)COC1 [Ex-6.1, 6-chloro-N-(1-(2,2-difluoroethyl)-1H-pyrazol-4-yl)-7-(4-(3-methyloxetan-3-yl)piperazin-1-yl)quinazolin-2-amine] | 5.68
Cc1c(Nc2ncc3cc(Cl)c(N4CCN(C5(C)COCC5O)CC4)cc3n2)cnn1C (single isomer, unassigned) [Ex-3.43, (3R,4R) or (3S,4S) 4-(4-{6-chloro-2-[(1,5-dimethyl-1H-pyrazol-4-yl)amino]quinazolin-7-yl}piperazin-1-yl)-4-methyloxolan-3-ol] | 0.438
Cc1cc2cnc(Nc3cnn(C45CC(C4)C5)c3Cl)nc2cc1N1CCN(C2COCC2O)CC1 (single isomer, unassigned) [Ex-5.12, (3S,4S) or (3R,4R) 4-(4-(2-((1-(bicyclo[1.1.1]pentan-1-yl)-5-chloro-1H-pyrazol-4-yl)amino)-6-methylquinazolin-7-yl)piperazin-1-yl)tetrahydrofuran-3-ol] | 5.17
Clc1cc2cnc(Nc3cnn(C45CC(C4)C5)c3Cl)nc2cc1N1CCC2(CCOC2)CC1 [Ex-3.39, N-[1-(bicyclo[1.1.1]pentan-1-yl)-5-chloro-1H-pyrazol-4-yl]-6-chloro-7-(2-oxa-8-azaspiro[4.5]decan-8-yl) quinazolin-2-amine] | 3.23
CC1(O)CCN(c2cc3nc(Nc4cnn(C5CC5)c4Cl)ncc3cc2Cl)CC1 [Ex-1.34, 1-{6-chloro-2-[(5-chloro-1-cyclopropyl-1H-pyrazol-4-yl)amino]quinazolin-7-yl}-4-methylpiperidin-4-ol] | 1.39
OC1COCC1N1CCN(c2cc3nc(Nc4cnn(C5CC5(F)F)c4Cl)ncc3cc2Cl)CC1 (single isomer, unassigned) [Ex-6.30, (3S,4S) or (3R,4R) 4-[4-(6-chloro-2-{[5-chloro-1-(2,2-(R) or (S)difluorocyclopropyl)-1H-pyrazol-4-yl]amino}quinazolin-7-yl)piperazin-1-yl]oxolan-3-ol] | 0.9
Cc1c(Nc2ncc3cc(Cl)c(N4CCC(C)(O)CC4)cc3n2)cnn1C1CC1 [Ex-6.4, 1-{6-chloro-2-[(1-cyclopropyl-5-methyl-1H-pyrazol-4-yl)amino}quinazolin-7-yl}-4-methylpiperidin-4-ol] | 1.92
Cn1ncc(Nc2ncc3cc(Cl)c(N4CCN(C5(C)COC5)CC4)cc3n2)c1Cl [Ex-4.47, 6-chloro-N-(5-chloro-1-methyl-1H-pyrazol-4-yl)-7-[4-(3-methyloxetan-3-yl)piperazin-1-yl]quinazolin-2-amine] | 8.56

SMILES | IC50 [nM]
OC1CN(C2CCN(c3cc4nc(Nc5cnn(CC(F)F)c5Cl)ncc4cc3Cl)CC2)C1 [Ex-1.22, 1-[1-(6-chloro-2-{[5-chloro-1-(2,2-difluoroethyl)-1H-pyrazol-4-yl]amino}quinazolin-7-yl)piperidin-4-yl]azetidin-3-ol] | 6.94
COCC12CC(n3ncc(Nc4ncc5cc(Cl)c(N6C[C@H]7CC[C@@H](C6)[C@@]7(C)O)cc5n4)c3Cl)(C1)C2 [Ex-3.1, (Endo)-3-(6-chloro-2-((5-chloro-1-(3-(methoxymethyl)bicyclo[1.1.1]pentan-1-yl)-1H-pyrazol-4-yl)amino)quinazolin-7-yl)-8-methyl-3-azabicyclo[3.2.1]octan-8-ol] | 0.093
CC1(O)CCN(c2cc3nc(Nc4cnn([C@H]5CCN(C6COC6)C[C@@H]5F)c4Cl)ncc3cc2Cl)CC1 [Ex-3.6, 1-[6-chloro-2-({5-chloro-1-[(3S,4S)-3-fluoro-1-(oxetan-3-yl)piperidin-4-yl]-1H-pyrazol-4-yl}amino)quinazolin-7-yl]-4-methylpiperidin-4-ol] | 0.625
CN(C)[C@@H]1CCN(c2cc3nc(Nc4cnn(CC(F)F)c4Cl)ncc3cc2Cl)C1 [Ex-1.23, 6-chloro-N-[5-chloro-1-(2,2-difluoroethyl)-1H-pyrazol-4-yl]-7-[(3R)-3-(dimethylamino)pyrrolidin-1-yl]quinazolin-2-amine] | 32.6
Cc1cc2cnc(Nc3cnn(C4CC4)c3C)nc2cc1N1CCN(C2(C)COCC2O)CC1 (single isomer, unassigned) [Ex-5.4, (3S,4S) or (3R,4R) 4-(4-(2-((1-cyclopropyl-5-methyl-1H-pyrazol-4-yl)amino)-6-methylquinazolin-7-yl)piperazin-1-yl)-4-methyltetrahydrofuran-3-ol] | 0.18
O[C@H]1CCN(c2cc3nc(Nc4cnn(CC(F)F)c4Cl)ncc3cc2Cl)C1 [Ex-1.17, (3S)-1-(6-chloro-2-{[5-chloro-1-(2,2-difluoroethyl)-1H-pyrazol-4-yl]amino}quinazolin-7-yl)pyrrolidin-3-ol] | 9.26
FC1CN(C2CCN(c3cc4nc(Nc5cnn(C6CC6)c5Cl)ncc4cc3Cl)CC2)C1 [Ex-1.27, 6-chloro-N-(5-chloro-1-cyclopropyl-1H-pyrazol-4-yl)-7-[4-(3-fluoroazetidin-1-yl)piperidin-1-yl]quinazolin-2-amine] | 0.778
Cn1nc(Cl)cc1Nc1ncc2cc(Cl)c(N3CCN([C@@]4(C)COC[C@H]4O)CC3)cc2n1 (single isomer, unassigned) | 5.97
C[C@]1(O)COCC12CCN(c1cc3nc(Nc4cnn(C5CC5)c4Cl)ncc3cc1Cl)CC2 [Ex-3.4] | 19.9
Cc1c(Nc2ncc3cc(Cl)c(N4CCC(C)(O)C(C)C4)cc3n2)cnn1C1CC1 (single isomer, unassigned) [Ex-3.48, (3R,4R) or (3S,4S) or (3R,4S) or (3S,4R) 1-{6-chloro-2-[(1-cyclopropyl-5-methyl-1H-pyrazol-4-yl)amino]quinazolin-7-yl}-3,4-dimethylpiperidin-4-ol] | 1.46
CN1CCN(c2cc3nc(Nc4cnn(C)c4Cl)ncc3cc2Cl)CC1 [Ex-11.1, 6-Chloro-N-(5-chloro-1-methyl-1H-pyrazol-4-yl)-7-(4-methylpiperazin-1-yl)quinazolin-2-amine] | 11.7
CC1(O)CCN(c2cc3nc(Nc4cnn(C5CC5)c4Cl)ncc3cc2Cl)CC1 [Ex-3.26, 1-{6-chloro-2-[(5-chloro-1-cyclopropyl-1H-pyrazol-4-yl)amino]quinazolin-7-yl}-4-methylpiperidin-4-ol] | 5.63
COCC12CC(n3cc(Nc4ncc5cc(Cl)c(N6CCC7(CC6)COC(CO)C7)cc5n4)cn3)(C1)C2 (single isomer, unassigned) [Ex-3.16, (R) or (S)-{8-[6-chloro-2-({1-[3-(methoxymethyl)bicyclo[1.1.1]pentan-1-yl]-1H-pyrazol-4-yl}amino)quinazolin-7-yl]-2-oxa-8-azaspiro[4.5]decan-3-yl}methanol] | 0.218
Cc1cc2cnc(Nc3cnn(C4CC4(F)F)c3C)nc2cc1N1CCN(C2COCC2O)CC1 (single isomer, unassigned) [Ex-5.2, (3S,4S) or (3R,4R) 4-(4-(2-((1-(2,2-(R) or (S)difluorocyclopropyl)-5-methyl-1H-pyrazol-4-yl)amino)-6-methylquinazolin-7-yl)piperazin-1-yl)tetrahydrofuran-3-ol] | 0.45
Cc1cc2cnc(Nc3cnn(C45CC(C4)C5)c3Cl)nc2cc1N1CCN(C2(C)COCC2O)CC1 (single isomer, unassigned) [Ex-13.4, (3S,4S) or (3R, 4R)-4-(4-(2-((1-(bicyclo[1.1.1]pentan-1-yl)-5-chloro-1H-pyrazol-4-yl)amino)-6-methylquinazolin-7-yl)piperazin-1-yl)-4-methyltetrahydrofuran-3-ol] | 0.267
Cc1c(Nc2ncc3cc(Cl)c(N4CCN(C5(C)COC5)CC4)cc3n2)cnn1CC(C)(C)O [Ex-4.55, 1-[4-({6-chloro-7-[4-(3-methyloxetan-3-yl)piperazin-1-yl]quinazolin-2-yl}amino)-5-methyl-1H-pyrazol-1-yl]-2-methylpropan-2-ol] | 11.1
